# Molecular target: T1, GCase (Homo sapiens, UniProt P04062)
# T1 construct: endogenous in cells; host or cells: HeLa cells
# T1 sequence (P04062 40-536): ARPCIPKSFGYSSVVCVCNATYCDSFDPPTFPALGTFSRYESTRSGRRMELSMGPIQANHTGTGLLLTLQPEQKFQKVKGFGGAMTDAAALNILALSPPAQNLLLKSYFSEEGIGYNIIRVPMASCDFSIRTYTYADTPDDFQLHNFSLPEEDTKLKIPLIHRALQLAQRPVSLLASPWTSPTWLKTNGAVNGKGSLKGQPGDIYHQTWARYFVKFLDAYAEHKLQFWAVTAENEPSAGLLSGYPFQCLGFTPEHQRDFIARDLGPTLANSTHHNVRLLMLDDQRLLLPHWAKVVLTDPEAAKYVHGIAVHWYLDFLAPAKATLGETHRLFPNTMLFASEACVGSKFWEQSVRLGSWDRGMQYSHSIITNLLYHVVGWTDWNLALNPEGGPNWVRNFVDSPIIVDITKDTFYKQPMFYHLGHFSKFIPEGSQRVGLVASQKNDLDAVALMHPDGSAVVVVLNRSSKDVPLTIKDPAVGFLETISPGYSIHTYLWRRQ
# Test: activation of GCase in a live cell PFB assay in HELA cells
# Format: cell-based
# Details: activation of GCase, EC50 ranges
# Procedure: Exemplary compounds were evaluated for activation of GCase in a live cell PFB assay in HELA cells (essentially as described in Ysselstein et al., “LRRK2 kinase activity regulates lysosomal glucocerebrosidase in neurons derived from Parkinson's disease patients” Nature Communications (2019) 10:5570). […] EC50 ranges: A: <10 μM; B: >10-50 μM; C: >50-100 μM; D: >100 μM.
row,Compound,EC50 [µM]
1,CCn1ncc2cnc(N3CCC4(CC3)CC(=O)N(c3ccc(C(F)(F)F)nc3)C4)nc21 [Cmpd 889],< 10
2,O=C1CC2(CCN(c3cnc4cnn(CC(F)F)c4n3)CC2)CN1c1ccc(Cl)nc1 [Cmpd 891],10 to 50
3,O=C1CC2(CCN(c3cnc4cnn(CC(F)F)c4n3)CC2)CN1c1cncc(Cl)c1 [Cmpd 893],< 10
4,O=C1CC2(CCN(c3cnc4cnn(CC(F)F)c4n3)CC2)CN1Cc1cnc(OCC(F)(F)F)nc1 [Cmpd 894],10 to 50
5,O=C1CC2(CCN(c3cnc4cnn(CC(F)F)c4n3)CC2)CN1c1ccnc(C(F)(F)F)n1 [Cmpd 895],< 10
6,O=C1N(c2ccnc(C(F)(F)F)n2)CCC12CCN(c1cnc3cnn(CC(F)F)c3n1)CC2 [Cmpd 896],< 10
7,Cc1nc(N2CC3(CCN(c4ncc5c(n4)n(C4COC4)c(=O)n5C)C3)C2)cc(C(F)(F)F)n1 [Cmpd 899],< 10
8,O=C1N(c2ccnc(C(F)(F)F)n2)CCC12CCN(c1ncc3cnn(CC(F)F)c3n1)CC2 [Cmpd 900],< 10
9,O=C1CC2(CCN(c3ncc4cnn(CC(F)F)c4n3)CC2)CN1c1ccnc(C(F)(F)F)n1 [Cmpd 901],< 10
10,Cc1nn(CC(F)F)c2nc(N3CCC4(CC3)CC(=O)N(c3ccnc(C(F)(F)F)n3)C4)ncc12 [Cmpd 903],< 10
11,CCC1N(c2ccnc(C(F)(F)F)n2)C(=O)CC12CCN(c1cnc3cnn(CC(F)F)c3n1)CC2 (stereo not drawn) [Cmpd 904],< 10
12,CCC1N(c2cnc(C(F)(F)F)nc2)C(=O)CC12CCN(c1cnc3cnn(CC(F)F)c3n1)CC2 (stereo not drawn) [Cmpd 905],10 to 50
13,O=C1CC2(CCN(c3cnc4cnn(C5COC5)c4n3)CC2)CN1c1ccnc(C(F)(F)F)n1 [Cmpd 907],< 10
14,CCN1C(=O)N(c2ccnc(C(F)(F)F)n2)C(=O)C12CCN(c1cnc3cnn(C4COC4)c3n1)CC2 [Cmpd 909],10 to 50
15,O=C1CC2(CCN1c1ccc(C(F)(F)F)nc1)CN(c1cnc3cnn(CC(F)F)c3n1)C2 [Cmpd 910],10 to 50
16,CC(c1cnc(C(F)(F)F)nc1)N1CC2(CCN(c3cnc4cnn(CC(F)F)c4n3)CC2)CC1=O (stereo not drawn) [Cmpd 914],10 to 50
17,O=C1CC2(CCN(c3ncc4cnn(CC(F)F)c4n3)CC2)CN1c1cnc(C(F)(F)F)nc1 [Cmpd 916],< 10
18,Cn1c(N2CCC3(CC2)CC(=O)N(c2ccc(C(F)(F)F)nc2)C3)nc2c(cnn2CC(F)F)c1=O [Cmpd 925],10 to 50
19,O=C1CC2(CCN(c3cnc4cnn(CC(F)F)c4n3)CC2)CN1Cc1cnc(C(F)(F)F)cn1 [Cmpd 930],10 to 50

row,Compound,EC50 [µM]
1,Cc1nn(C2COC2)c2nc(N3CCC4(CN(c5ccnc(C(F)(F)F)c5)C4)C3)ncc12 [Cmpd 932],10 to 50
2,FC(F)(F)c1cc(N2CC3(CCN(c4cnc5cnn(C[C@H]6CCO6)c5n4)C3)C2)ccn1 [Cmpd 934],< 10
3,COc1nn(CC(F)F)c2nc(N3CCC4(CN(c5ccnc(C(F)(F)F)c5)C4)C3)cnc12 [Cmpd 936],< 10
4,CCOc1nn(CC(F)F)c2nc(N3CCC4(CN(c5ccnc(C(F)(F)F)c5)C4)C3)cnc12 [Cmpd 937],< 10
5,COc1nn(CC(F)F)c2nc(N3CCC4(CN(c5ccnc(C(F)(F)F)c5)C4)C3)ncc12 [Cmpd 938],10 to 50
6,COc1nn(CC(F)F)c2nc(N3CCC4(CC3)CC(=O)N(c3ccnc(C(F)(F)F)c3)C4)cnc12 [Cmpd 940],< 10
7,CCOc1nn(CC(F)F)c2nc(N3CCC4(CC3)CC(=O)N(c3ccnc(C(F)(F)F)c3)C4)cnc12 [Cmpd 941],< 10
8,COc1nn(CC(F)F)c2nc(N3CCC4(CC3)CC(=O)N(c3nccc(C(F)(F)F)n3)C4)cnc12 [Cmpd 942],10 to 50
9,COc1nn(C2COC2)c2nc(N3CCC4(CN(c5ccnc(C(F)(F)F)c5)C4)C3)cnc12 [Cmpd 943],< 10
10,CCOc1nn(C2COC2)c2nc(N3CCC4(CN(c5ccnc(C(F)(F)F)c5)C4)C3)cnc12 [Cmpd 944],< 10
11,COc1nn(C2COC2)c2nc(N3CCC4(CN(c5ccnc(C(F)(F)F)c5)C4)C3)ncc12 [Cmpd 945],10 to 50
12,CCOc1nn(CC(F)F)c2nc(N3CCC4(CC3)CC(=O)N(c3ccc(C(F)(F)F)nc3)C4)cnc12 [Cmpd 947],< 10
13,COc1nn(CC(F)F)c2nc(N3CCC4(CC3)CC(=O)N(c3ccc(C(F)(F)F)nc3)C4)ncc12 [Cmpd 948],10 to 50
14,CCOc1nn(CC(F)F)c2nc(N3CCC4(CC3)CC(=O)N(c3ccc(C(F)(F)F)nc3)C4)ncc12 [Cmpd 949],10 to 50
15,CCOc1nn(C2COC2)c2nc(N3CCC4(CC3)CC(=O)N(c3ccc(C(F)(F)F)nc3)C4)cnc12 [Cmpd 951],< 10
16,COc1nn(C2COC2)c2nc(N3CCC4(CC3)CC(=O)N(c3ccc(C(F)(F)F)nc3)C4)ncc12 [Cmpd 952],10 to 50
17,O=C1CC2(CCN(c3cnc4cnn(CC(F)F)c4n3)CC2)C(CC(F)F)N1c1ccnc(C(F)(F)F)c1 (stereo not drawn) [Cmpd 955],< 10
18,FC(F)Cn1ncc2ncc(N3CCC4(CN(c5ccnc(OCC(F)(F)F)n5)C4)C3)nc21 [Cmpd 960],10 to 50
19,Cc1cnc(C(F)(F)F)nc1N1CC2(CCN(c3cnc4cnn(CC(F)F)c4n3)C2)C1 [Cmpd 961],10 to 50

# More lines, now with the values ahead:
row,EC50 [µM],Compound
1,< 10,CCn1ncc2ncc(N3CCC4(CC3)CC(=O)N(c3ccc(C(F)(F)F)nc3)C4)nc21 [Cmpd 890]
2,< 10,Cc1nn(CC(F)F)c2nc(N3CCC4(CC3)CCN(c3ccnc(C(F)(F)F)n3)C4=O)cnc12 [Cmpd 897]
3,< 10,Cc1nn(CC(F)F)c2nc(N3CCC4(CC3)CC(=O)N(c3ccnc(C(F)(F)F)n3)C4)cnc12 [Cmpd 898]
4,10 to 50,CCN1C(=O)N(c2ccnc(C(F)(F)F)n2)C(=O)C12CCN(c1cnc3cnn(CC(F)F)c3n1)CC2 [Cmpd 906]
5,10 to 50,O=C1CC2(CCN1c1cnc3cnn(CC(F)F)c3n1)CN(c1ccc(C(F)(F)F)cn1)C2 [Cmpd 911]
6,10 to 50,O=C1CC2(CCN1c1ccc(C(F)(F)F)cn1)CN(c1cnc3cnn(CC(F)F)c3n1)C2 [Cmpd 912]
7,10 to 50,O=C1CC2(CCN1c1cnc3cnn(CC(F)F)c3n1)CN(c1ccc(C(F)(F)F)nc1)C2 [Cmpd 913]
8,< 10,O=C1CC2(CCN(c3cnc4cnn(CC(F)F)c4n3)CC2)CN1Cc1ccnc(C(F)(F)F)n1 [Cmpd 915]
9,50 to 100,O=C1CC2(CCN(c3ncc4cnn(CC(F)F)c4n3)CC2)CN1Cc1cnc(C(F)(F)F)nc1 [Cmpd 917]
10,10 to 50,O=C1CC2(CCN(c3cnc4cnn(CC(F)F)c4n3)CC2)CN1Cc1ccc(OC(F)(F)F)nc1 [Cmpd 918]
11,< 10,O=C1CC2(CCN(c3cnc4cnn(CC(F)F)c4n3)CC2)CN1Cc1ccnc(OC(F)F)c1 [Cmpd 919]
12,10 to 50,O=C1CC2(CCN(c3ncc4cnn(CC(F)F)c4n3)CC2)CN1c1ccc(OCC(F)(F)F)nc1 [Cmpd 921]
13,< 10,Cn1c(N2CCC3(CC2)CC(=O)N(c2cc(C(F)(F)F)ccn2)C3)nc2c(cnn2CC(F)F)c1=O [Cmpd 922]
14,< 10,Cn1c(N2CCC3(CC2)CC(=O)N(c2ccnc(C(F)(F)F)c2)C3)nc2c(cnn2CC(F)F)c1=O [Cmpd 923]
15,< 10,FC(F)(F)Cn1ncc2ncc(N3CCC4(CN(c5ccnc(C(F)(F)F)c5)C4)C3)nc21 [Cmpd 924]
16,10 to 50,Cn1c(N2CCC3(CC2)CC(=O)N(Cc2cnc(C(F)(F)F)nc2)C3)nc2c(cnn2CC(F)F)c1=O [Cmpd 926]

row,EC50 [µM],Compound
1,10 to 50,O=C1N(Cc2cnc(C(F)(F)F)cn2)CCC12CCN(c1cnc3cnn(CC(F)F)c3n1)CC2 [Cmpd 927]
2,10 to 50,Cc1ncc(C(F)(F)F)nc1N1CCC2(CCN(c3cnc4cnn(CC(F)F)c4n3)CC2)C1=O [Cmpd 928]
3,10 to 50,COc1cc(N2CC3(CCN(c4cnc5cnn(CC(F)F)c5n4)C3)C2)ccn1 [Cmpd 929]
4,10 to 50,Cc1nn(C2COC2)c2nc(N3CCC4(CN(c5ccnc(C(F)(F)F)c5)C4)C3)cnc12 [Cmpd 931]
5,< 10,FC(F)(F)c1cc(N2CC3(CCN(c4cnc5cnn(C[C@@H]6CCO6)c5n4)C3)C2)ccn1 [Cmpd 933]
6,50 to 100,CCOc1nn(CC(F)F)c2nc(N3CCC4(CN(c5cc(C(F)(F)F)nc(C)n5)C4)C3)cnc12 [Cmpd 935]
7,< 10,CCOc1nn(CC(F)F)c2nc(N3CCC4(CN(c5ccnc(C(F)(F)F)c5)C4)C3)ncc12 [Cmpd 939]
8,10 to 50,CCOc1nn(C2COC2)c2nc(N3CCC4(CN(c5ccnc(C(F)(F)F)c5)C4)C3)ncc12 [Cmpd 946]
9,> 100,COc1nn(C2COC2)c2nc(N3CCC4(CC3)CC(=O)N(c3ccc(C(F)(F)F)nc3)C4)cnc12 [Cmpd 950]
10,10 to 50,CCOc1nn(C2COC2)c2nc(N3CCC4(CC3)CC(=O)N(c3ccc(C(F)(F)F)nc3)C4)ncc12 [Cmpd 953]
11,10 to 50,O=C1CC2(CCN(c3cnc4cnn(CC(F)F)c4n3)CC2)C(CCF)N1c1ccnc(C(F)(F)F)c1 (stereo not drawn) [Cmpd 954]
12,> 100,Cc1cnc(C(F)(F)F)nc1N1CC2(CCN(c3cnc4cnn(CC(F)F)c4n3)CC2)CC1=O [Cmpd 956]
13,10 to 50,Cc1nc(C(F)(F)F)ncc1N1CC2(CCN(c3cnc4cnn(CC(F)F)c4n3)C2)C1 [Cmpd 957]
14,< 10,FC(F)Cn1ncc2ncc(N3CCC4(CN(c5cnc(C(F)F)nc5)C4)C3)nc21 [Cmpd 958]
15,10 to 50,Cc1nc(OCC(F)(F)F)ncc1N1CC2(CCN(c3cnc4cnn(CC(F)F)c4n3)C2)C1 [Cmpd 959]

# From patent US20250034170A1, “SMALL MOLECULE MODULATORS OF GLUCOCEREBROSIDASE ACTIVITY AND USES THEREOF” (Vanqua Bio, Inc., priority 2021, published 2025)
